Assay results reported in PubChem BioAssay AID1963850 (Molecular Pharmacology Branch, DTP, NCI, 2024).
“And” between values parts separate entries of the source, which are not always exact repeats. Equal entries are not always repeated.

System: 192522-019-R-J2-PDC complex tumor spheroid viability
Experiment: Anticancer human tumor 192522-019-R-J2-PDC patient-derived colon adenocarcinoma cell line growth inhibition [POLQ]
Settings: for viability, T/C: stronger effect = lower value
Experimental: Multicellular complex tumor spheroid response to Polymerase (POL) inhibitors (novobiocin, ART-558, RP6685) in combination with a variety of drugs and investigational agents in selected tumor cell lines
The POL inhibitors (novobiocin, ART-558, and RP6685) were evaluated both individually and in combination with standard of care and investigational anticancer small molecules within a complex spheroid model of solid tumors. . Complex spheroids include a stromal component modeled by human endothelial cells (HUVEC) and fibroblasts modeled by human mesenchymal stem cells (MSCs). The concentration ranges selected for each drug and investigational agent were based upon clinically achievable concentrations if the clinical Cmax of the agent was known.
Compounds. The drugs and investigational agents: novobiocin (NSC847541), ART-558 (NSC835418), RP-6685 (NSC848927), peposertib (NSC802822), ceralasertib (NSC780249), elimusertib (NSC800525), camonsertib (NSC841442), AZD-1390 (NSC803789), olaparib (NSC753686), talazoparib (NSC767125), rucaparib (NSC756644), sotorasib (NSC818433), MRTX-1133 (NSC836407), SN-38 (NSC673596), topotecan (NSC609699), epotoside (NSC141540), doxorubicin (NSC123127), gemcitabine (NSC613327), 5-fluorouracil (NSC19893), paclitaxel (NSC125973), vemurafenib (NSC761431), MSA-2 (NSC828583), SN-011 (NSC837082), adavosertib (NSC754352), prexasertib (NSC758257), carboplatin (NSC241240) and oxaliplatin (NSC266046), were obtained from the National Cancer Institute (NCI) Developmental Therapeutics Program Chemical Repository (21). The FDA-approved anticancer drug set is available from the Developmental Therapeutics Program at https://dtp.cancer.gov/organization/dscb/obtaining/. […] The stock solutions were prepared in dimethyl sulfoxide (DMSO, Sigma-Aldrich, St. Louis, MO, cat. D2650), except for the platinum compounds which were prepared in saline (Quality Biological, Gaithersburg, MD, cat. 114-055-101), at 800-fold the tested concentration and stored at -70 degrees C prior to their use. All drugs and investigational agents were tested over a range starting from a high concentration at or near the clinical Cmax and decreasing in half-log increments. If the clinical Cmax for an agent had not been determined, the highest concentration tested was 10 microM, except for SN-38, which was tested at a high concentration of 1 microM.
Cell Culture. All cells were maintained in an incubator at 37 degrees C and 5% CO2 with 95% humidity. The PDC lines were cultured according to standard operating procedures established by the NCI PDMR (https://pdmr.cancer.gov). Table 3 of the manuscript, lists the cell lines along with the number of the three cell types plated to form the mct-spheroids and media for tumor cell growth. After thawing, all PDC lines, except 997537-175-T-J1-PDC and 415267-285-R-J2-PDC, were cultured in Matrigel-coated flasks prepared with a working solution of 1X Ham's F-12 nutrient mix, without supplementation (Thermo Fisher Scientific, cat. 11765054), 100 U/mL penicillin-streptomycin (Thermo Fisher Scientific, cat. 15140122), and 2.5% Matrigel (Corning Inc., Corning, NY, cat. 354248) for the first three passages. The two PDC lines 997537-175-T-J1-PDC and 415267-285-R-J2-PDC were cultured on uncoated flasks. The 857933-349-R-J2-PDC line was cultured in 6C/Colon 1B media containing advanced DMEM/F-12 (Thermo Fisher Scientific, cat. 12634028), 10 mM HEPES (Thermo Fisher Scientific, cat. 15630080), 1X GlutaMAX supplement (Thermo Fisher Scientific, cat. 35050061), 0.1 mg/mL primocin (InvivoGen, San Diego, CA, cat. ant-pm-2), 10% defined fetal bovine serum, heat inactivated (HyClone Laboratories Inc., Logan, UT, cat. SH30070.03HI), 50% L-WRN conditioned media (ATCC, cat. CRL-3276), 1.25 mM N-Acetyl-L-cysteine (Sigma-Aldrich, cat. A9165), 10 mM nicotinamide (Sigma-Aldrich, cat. N0636), 1X B-27 supplement (Thermo Fisher Scientific, cat. 17504044), 1X N-2 supplement (Thermo Fisher Scientific, cat. […]
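Also: spheroids exposed to drugs for seven days before reading.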
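For viability, T/C in this document: 100% = DMSO vehicle control viability in luminescence.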

`C=CCn1c(=O)c2cnc(Nc3ccc(N4CCN(C)CC4)cc3)nc2n1-c1cccc(C(C)(C)O)n1` was tested, and the viability, T/C (compound 0.00316 µM) was 101% and 105% and 108%, the viability, T/C (compound 0.01 µM) was 97.8% and 97.2% and 97% and the viability, T/C (compound 0.0316 µM) was 97.5% and 100% and 99.1%. The viability, T/C (compound 0.1 µM) was 102% (2×) and 106%, the viability, T/C (compound 0.316 µM) was 85.8% and 97% and 86.1% and the viability, T/C (compound 1 µM) was 24.8% and 36.2% and 38.5%. For the same compound, the IC50 (curve of compound) was 627 nM and 773 nM and 764 nM.
`C=CC(=O)N1CCN(c2nc(=O)n(-c3c(C)ccnc3C(C)C)c3nc(-c4c(O)cccc4F)c(F)cc23)C(C)C1` (stereo not drawn) was tested, and the viability, T/C (compound 0.0316 µM) was 107% (2×) and 105%, the viability, T/C (compound 0.1 µM) was 92.4% and 101% and 94.3% and the viability, T/C (compound 0.316 µM) was 95% and 94.1% and 97.7%. The viability, T/C (compound 1 µM) was 106% and 102% and 109%, the viability, T/C (compound 3.16 µM) was 104% and 113% and 112% and the viability, T/C (compound 10 µM) was 104% and 109% and 108%. The IC50 (curve of compound) was greater than 10000 nM.
In the case of `COc1cc(C2c3cc4c(cc3C(OC3OC5COC(C)OC5C(O)C3O)C3COC(=O)C23)OCO4)cc(OC)c1O` (stereo not drawn), the viability, T/C (compound 0.0316 µM) is reported as 101% and 100% and 97.1%, the viability, T/C (compound 0.1 µM) is reported as 96.5% and 97% and 97.3% and the viability, T/C (compound 1 µM) is reported as 86.6% and 86% and 84.8%. The viability, T/C (compound 3.16 µM) was 59.9% (2×) and 65.3%, the viability, T/C (compound 10 µM) was 75.5% and 79.4% and 55.1% and the IC50 (curve of compound) was greater than 10000 nM.
With `CCc1cc2c(N3CCc4c(cc(Cn5ccnc5)cc4-c4cn(C)nc4C(F)(F)F)C3=O)cc(C)nc2c(OC)n1` the viability, T/C (compound 0.0316 µM) was 109% and 107% and 102%, the viability, T/C (compound 0.1 µM) was 91.4% and 91% and 94.7% and the viability, T/C (compound 0.316 µM) was 80.7% and 86.7% and 85.3%. The viability, T/C (compound 1 µM) was 80.1% and 82% and 77.7%, the viability, T/C (compound 3.16 µM) was 73.1% and 73% and 75.4% and the viability, T/C (compound 10 µM) was 68.1% and 75.8% and 68.3%. It also gave an IC50 (curve of compound) greater than 10000 nM.
For `CC(=O)O[C@H]1C(=O)[C@@]2(C)[C@H]([C@H](OC(=O)c3ccccc3)[C@]3(O)C[C@H](OC(=O)[C@H](O)[C@@H](NC(=O)c4ccccc4)c4ccccc4)C(C)=C1C3(C)C)[C@]1(OC(C)=O)CO[C@@H]1C[C@@H]2O`, the viability, T/C (compound 0.00949 µM) was 90.9% and 93% and 91.4%, the viability, T/C (compound 0.03 µM) was 61.5% and 61.7% and 71.9% and the viability, T/C (compound 0.0949 µM) was 56.5% and 58.9% and 54.1%. For the same compound, the viability, T/C (compound 0.3 µM) was 54.5% and 54.7% and 52.9%, the viability, T/C (compound 0.949 µM) was 54.3% and 56.4% and 57.7% and the viability, T/C (compound 3 µM) was 53% and 61.1% and 54.8%. For the same compound, the IC50 (curve of compound) was greater than 3000 nM.
`CC1COCCN1c1cc(-c2ccnn2C)c2ccnc(-c3ccn[nH]3)c2n1` (stereo not drawn) was tested, and the viability, T/C (compound 0.0316 µM) was 97.7% and 93.8% and 106%, the viability, T/C (compound 0.1 µM) was 76% and 76.1% and 87.4% and the viability, T/C (compound 0.316 µM) was 43.4% and 45% and 54.1%. For the same compound, the viability, T/C (compound 1 µM) was 33.5% (2×) and 32.2%, the viability, T/C (compound 3.16 µM) was 35.1% and 40.1% and 41% and the viability, T/C (compound 10 µM) was 48% and 44.6% and 47.2%. The IC50 (curve of compound) was 246 nM and 256 nM and 400 nM.
`COc1cc(C2c3cc4c(cc3C(OC3OC5COC(C)OC5C(O)C3O)C3COC(=O)C23)OCO4)cc(OC)c1O` (stereo not drawn) + COC1C(OC(N)=O)C(O)C(Oc2ccc3c(O)c(NC(=O)c4ccc(O)c(CC=C(C)C)c4)c(=O)oc3c2C)OC1(C)C was tested, and the IC50 (curve of first compound, second compound 0.0316 µM) was greater than 10000 nM, the IC50 (curve of first compound, second compound 0.1 µM) was greater than 10000 nM and the IC50 (curve of first compound, second compound 0.316 µM) was greater than 10000 nM. The IC50 (curve of first compound, second compound 1 µM) was greater than 10000 nM, the IC50 (curve of first compound, second compound 3.16 µM) was greater than 10000 nM and the IC50 (curve of first compound, second compound 10 µM) was greater than 10000 nM. The viability, T/C (second compound 0.0316 µM, first compound 0.0316 µM) was 106%, the viability, T/C (second compound 0.0316 µM, first compound 0.1 µM) was 89.3% and the viability, T/C (second compound 0.0316 µM, first compound 0.316 µM) was 92.4%. It also gave a viability, T/C (second compound 0.0316 µM, first compound 1 µM) of 82.1%, a viability, T/C (second compound 0.0316 µM, first compound 3.16 µM) of 58.6% and a viability, T/C (second compound 0.0316 µM, first compound 10 µM) of 54.2%. The viability, T/C (second compound 0.1 µM, first compound 0.0316 µM) was 104%, the viability, T/C (second compound 0.1 µM, first compound 0.1 µM) was 95.7% and the viability, T/C (second compound 0.1 µM, first compound 0.316 µM) was 100%. It also gave a viability, T/C (second compound 0.1 µM, first compound 1 µM) of 84%, a viability, T/C (second compound 0.1 µM, first compound 3.16 µM) of 56.8% and a viability, T/C (second compound 0.1 µM, first compound 10 µM) of 59.4%. It also gave a viability, T/C (second compound 0.316 µM, first compound 0.0316 µM) of 95.6%, a viability, T/C (second compound 0.316 µM, first compound 0.1 µM) of 97.8% and a viability, T/C (second compound 0.316 µM, first compound 0.316 µM) of 101%. The viability, T/C (second compound 0.316 µM, first compound 1 µM) was 83%, the viability, T/C (second compound 0.316 µM, first compound 3.16 µM) was 55.2% and the viability, T/C (second compound 0.316 µM, first compound 10 µM) was 64%. For the same compound, the viability, T/C (second compound 1 µM, first compound 0.0316 µM) was 106%, the viability, T/C (second compound 1 µM, first compound 0.1 µM) was 101% and the viability, T/C (second compound 1 µM, first compound 0.316 µM) was 96.6%. For the same compound, the viability, T/C (second compound 1 µM, first compound 1 µM) was 103%, the viability, T/C (second compound 1 µM, first compound 3.16 µM) was 59.7% and the viability, T/C (second compound 1 µM, first compound 10 µM) was 57.4%. For the same compound, the viability, T/C (second compound 3.16 µM, first compound 0.0316 µM) was 110%, the viability, T/C (second compound 3.16 µM, first compound 0.1 µM) was 109% and the viability, T/C (second compound 3.16 µM, first compound 0.316 µM) was 99.9%. The viability, T/C (second compound 3.16 µM, first compound 1 µM) was 84.7%, the viability, T/C (second compound 3.16 µM, first compound 3.16 µM) was 67% and the viability, T/C (second compound 3.16 µM, first compound 10 µM) was 60.6%. The viability, T/C (second compound 10 µM, first compound 0.0316 µM) was 107%, the viability, T/C (second compound 10 µM, first compound 0.1 µM) was 96.2% and the viability, T/C (second compound 10 µM, first compound 0.316 µM) was 103%. For the same compound, the viability, T/C (second compound 10 µM, first compound 1 µM) was 88.5%, the viability, T/C (second compound 10 µM, first compound 3.16 µM) was 65.4% and the viability, T/C (second compound 10 µM, first compound 10 µM) was 61.4%.
